The values below come from patent US20160324863A1, “TARGETED CANCER TREATMENT BY HSP90 INHIBITORS GANETESPIB AND NVP-AUY922” (SYNTA PHARMACEUTICALS CORP., priority 2014, published 2016).

Where only a bound is given, the exact number is not on record here.

For series [1], the system named is SW780 bladder cancer cell line. As to the kind of experiment: CellTiter-Glo viability assay, SW780. The format is cell-based. The conditions noted are these: 72 hours (FIG. 12). Here is the method: (§1) Cellular viability was assessed using the CellTiter-Glo Luminescent Cell Viability Assay (Promega) according to manufacturer protocols. Bladder cancer cell lines were seeded into 96-well plates based on optimal growth rates determined empirically for each line. Twenty-four hours after plating, cells were dosed with graded concentrations of ganetespib for 72 hours. CellTiter-Glo was added (50% v/v) to the cells, and the plates incubated for 10 minutes prior to luminescent detection in a SpectraMax Plus 384 microplate reader (Molecular Devices). Data were normalized to percent of control and IC50 values used to determine the sensitivity of each line. For the comparative analyses with ganetespib and BGJ398, RT112 cells were treated with graded concentrations of each compound for 72 hours and cell viability measured as above. For the evaluation of apoptotic induction, caspase activity was assessed using the Caspase-Glo 3/7 assay (Promega) according to manufacturer protocols. Twenty-four hours after plating, RT112 cells were treated with graded concentrations of ganetespib for 24 hours. Caspase-Glo was added to cells (50% v/v) and the plates incubated for 1 hour prior to luminescent detection.
On the technique in general: Cellular ATP, detected with luciferase, serves as a proxy for viable cell number.

In series [2] the test system is RT4 bladder cancer cell line. The series is described as follows: CellTiter-Glo viability assay, RT4. The conditions noted are these: 72 hours (FIG. 8), read-out: IC50 values. It counts as cell-based. Here is the method:
as §1

In series [3] the test system is RT112 bladder cancer cell line. The series is described as follows: CellTiter-Glo viability assay, RT112. The format is cell-based. The conditions noted are these: Homo sapiens, RT-112, 72-hour combination viability assay, single inhibitor, read-out: approximate IC50 concentrations. Here is the method: as §1
Series [4] has as its system FGFR3-TAAC3 in RT112 cells. The series is described as follows: Western blotting of FGFR3-TAAC3 and signaling proteins in RT112 cells. The format is cell-based. The conditions noted are these: 100 nM, 24 hours. Here is the method:
Following in vitro assays, tumor cells were disrupted in lysis buffer on ice for 10 minutes. Lysates were clarified by centrifugation and equal amounts of proteins resolved by SDS-PAGE before transfer to nitrocellulose membranes (Bio-Rad). Membranes were blocked with StartingBlock T20 blocking buffer (Thermo Scientific) and immunoblotted with the indicated antibodies. Antibody-antigen complexes were visualized using an Odyssey system (LI-COR).
For orientation: Immunoblotting shows a protein as a band on a membrane.

For series [5], the system named is RT112 xenografts. As to the kind of experiment: RT112 xenograft tumor model. It counts as in vivo. The conditions noted are these: BGJ398 10 mg/kg p.o. daily, 3 weeks. Here is the method:
CD-1 nude mice (Charles River Laboratories, Wilmington, Mass.) at 7-12 weeks of age were maintained in a pathogen-free environment and all in vivo procedures were approved by the Synta Pharmaceuticals Corp. Institutional Animal Care and Use Committee. RT112 cells (5×10^6) were subcutaneously implanted into female mice and animals bearing established tumors (˜150 mm^3) were randomized into treatment groups of 8. Mice were i.v. dosed with ganetespib (150 mg/kg) once weekly or p.o. dosed with BGJ398 (10 mg/kg) daily, either alone or in combination, for 3 weeks. Tumor growth inhibition was monitored by tumor volume measurements twice weekly. As a measurement of in vivo efficacy, the % T/C value was determined from the change in average tumor volumes of each treated group relative to the vehicle treated animals. Statistical significance was determined using two-way ANOVA followed by Bonferroni post tests.

Consider `C=CCNC1=C2C[C@@H](C)C[C@H](OC)[C@H](O)[C@@H](C)/C=C(\C)[C@H](OC(N)=O)[C@@H](OC)/C=C\C=C(/C)C(=O)NC(=CC1=O)C2=O` [17-AAG, 17-allylamino-17-demethoxygeldanamycin], for which, in series [1], the “cytotoxicity / sensitivity of cells (in words)” value is recorded as “acutely sensitive”.

With `CO[C@H]1/C=C\C=C(/C)C(=O)NC2=CC(=O)C(NCCN(C)C)=C(C[C@@H](C)C[C@H](OC)[C@H](O)[C@@H](C)/C=C(\C)[C@@H]1OC(N)=O)C2=O` [17-DMAG, 17-dimethylaminoethylamino-17-demethoxygeldanamycin], in series [1], the “cytotoxicity / sensitivity of cells (in words)” value is listed as “acutely sensitive”.

`CCNC(=O)c1noc(-c2cc(C(C)C)c(O)cc2O)c1-c1ccc(CN2CCOCC2)cc1` [AUY922]: in series [2], the IC50 was over 1000 nM. Consider `CCN1CCN(c2ccc(Nc3cc(N(C)C(=O)Nc4c(Cl)c(OC)cc(OC)c4Cl)ncn3)cc2)CC1` [BGJ398, reference compound], for which, in series [3], the IC50 is about 5 nM. In addition, the “total FGFR3-TAAC3 expression” value in series [4] is given as “did not affect”. Further, in series [5], the T/C value was −20%.
